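GI50: concentration for 50% inhibition of growth. Definition used: TGI = concentration required for complete inhibition of growth.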
What was measured:
Assay in all cases: NCI anticancer screen, dose series, 384-well format
HOP-62 NSCLC = tested on: HOP-62 NSCLC
MALME-3M melanoma = tested on: MALME-3M melanoma
DU-145 prostate = tested on: DU-145 prostate
UACC-62 melanoma = tested on: UACC-62 melanoma
TK-10 renal = tested on: TK-10 renal
786-0 renal = tested on: 786-0 renal
RPMI-8226 leukemia = tested on: RPMI-8226 leukemia
MDA-MB-231 breast = tested on: MDA-MB-231 breast
SF-268 CNS = tested on: SF-268 CNS
OVCAR-4 ovarian = tested on: OVCAR-4 ovarian
OVCAR-5 ovarian = tested on: OVCAR-5 ovarian
MDA-MB-468 breast = tested on: MDA-MB-468 breast
UO-31 renal = tested on: UO-31 renal
K-562 leukemia = tested on: K-562 leukemia
HL-60(TB) leukemia = tested on: HL-60(TB) leukemia
A549 NSCLC = tested on: A549 NSCLC
U251 glioblastoma = tested on: U251 glioblastoma
NCI-H522 lung = tested on: NCI-H522 lung
HS 578T breast = tested on: HS 578T breast
SF-539 CNS = tested on: SF-539 CNS
ACHN renal = tested on: ACHN renal
OVCAR-3 ovarian = tested on: OVCAR-3 ovarian
RXF 393 renal = tested on: RXF 393 renal
NCI/ADR-RES ovarian = tested on: NCI/ADR-RES ovarian
EKVX NSCLC = tested on: EKVX NSCLC
LOX IMVI melanoma = tested on: LOX IMVI melanoma
BT-549 breast = tested on: BT-549 breast
SW-620 colon = tested on: SW-620 colon
KM12 colon = tested on: KM12 colon
NCI-H226 lung = tested on: NCI-H226 lung
NCI-H23 lung = tested on: NCI-H23 lung
MDA-MB-435 melanoma = tested on: MDA-MB-435 melanoma
OVCAR-8 ovarian = tested on: OVCAR-8 ovarian
MOLT-4 leukemia = tested on: MOLT-4 leukemia
UACC-257 melanoma = tested on: UACC-257 melanoma
HOP-92 NSCLC = tested on: HOP-92 NSCLC
HCT-116 colon = tested on: HCT-116 colon
SK-MEL-2 melanoma = tested on: SK-MEL-2 melanoma
SK-OV-3 ovarian = tested on: SK-OV-3 ovarian
SF-295 CNS = tested on: SF-295 CNS
NCI-H322M lung = tested on: NCI-H322M lung
SN12C renal = tested on: SN12C renal
IGROV1 ovarian = tested on: IGROV1 ovarian
CCRF-CEM leukemia = tested on: CCRF-CEM leukemia
CAKI-1 renal = tested on: CAKI-1 renal
SK-MEL-28 melanoma = tested on: SK-MEL-28 melanoma
M14 melanoma = tested on: M14 melanoma
MCF7 breast = tested on: MCF7 breast
HT29 colon = tested on: HT29 colon
PC-3 prostate = tested on: PC-3 prostate
HCT-15 colon = tested on: HCT-15 colon
SNB-75 CNS = tested on: SNB-75 CNS
T-47D breast = tested on: T-47D breast
SNB-19 CNS = tested on: SNB-19 CNS
A498 renal = tested on: A498 renal

Question: How did the GI50 (HOP-62 NSCLC) turn out when `Clc1ccc(C(c2ccccc2Cl)C(Cl)Cl)cc1` (stereo not given) was run?
Answer: 19.5 µM

Question: What about the TGI (HOP-62 NSCLC) of the same molecule?
Answer: 33.7 µM

Question: What about the GI50 (MALME-3M melanoma) of the same molecule?
Answer: 14.7 µM

Question: What about the TGI (MALME-3M melanoma) of the same molecule?
Answer: 27.9 µM

Question: What about the GI50 (DU-145 prostate) of the same molecule?
Answer: 16.8 µM

Question: And the TGI (DU-145 prostate)?
Answer: 30.7 µM

Question: And the GI50 (UACC-62 melanoma)?
Answer: 17 µM

Question: What about the TGI (UACC-62 melanoma) of the same molecule?
Answer: 30.8 µM

Question: What about the GI50 (TK-10 renal) of the same molecule?
Answer: 16.7 µM

Question: What about the TGI (TK-10 renal) of the same molecule?
Answer: 30.6 µM

Question: And the GI50 ([…]-0 renal)?
Answer: 16.2 µM

Question: What about the TGI (786-0 renal) of the same molecule?
Answer: 29.9 µM

Question: And the GI50 (RPMI-8226 leukemia)?
Answer: 14 µM

Question: What about the TGI (RPMI-8226 leukemia) of the same molecule?
Answer: 27 µM

Question: And the GI50 (MDA-MB-231 breast)?
Answer: 16.4 µM

Question: What about the TGI (MDA-MB-231 breast) of the same molecule?
Answer: 30.1 µM

Question: And the GI50 (SF-268 CNS)?
Answer: 16.7 µM

Question: And the TGI (SF-268 CNS)?
Answer: 30.5 µM

Question: And the GI50 (OVCAR-4 ovarian)?
Answer: 15.7 µM

Question: And the TGI (OVCAR-4 ovarian)?
Answer: 29.3 µM

Question: What about the GI50 (OVCAR-5 ovarian) of the same molecule?
Answer: 16.8 µM

Question: What about the TGI (OVCAR-5 ovarian) of the same molecule?
Answer: 30.7 µM

Question: And the GI50 (MDA-MB-468 breast)?
Answer: 10.7 µM

Question: What about the TGI (MDA-MB-468 breast) of the same molecule?
Answer: 22.7 µM

Question: What about the GI50 (UO-31 renal) of the same molecule?
Answer: 16.6 µM

Question: And the TGI (UO-31 renal)?
Answer: 30.5 µM

Question: And the GI50 (K-562 leukemia)?
Answer: 17.9 µM

Question: What about the TGI (K-562 leukemia) of the same molecule?
Answer: 32.1 µM

Question: And the GI50 (HL-60(TB) leukemia)?
Answer: 10.5 µM

Question: And the TGI (HL-60(TB) leukemia)?
Answer: 22.4 µM

Question: What about the GI50 (A549 NSCLC) of the same molecule?
Answer: 16.9 µM

Question: And the TGI (A549 NSCLC)?
Answer: 31 µM

Question: And the GI50 (U251 glioblastoma)?
Answer: 16.6 µM

Question: And the TGI (U251 glioblastoma)?
Answer: 30.5 µM

Question: What about the GI50 (NCI-H522 lung) of the same molecule?
Answer: 12.9 µM

Question: What about the TGI (NCI-H522 lung) of the same molecule?
Answer: 25.7 µM

Question: What about the GI50 (HS 578T breast) of the same molecule?
Answer: 17 µM

Question: What about the TGI (HS 578T breast) of the same molecule?
Answer: 30.8 µM

Question: And the GI50 (SF-539 CNS)?
Answer: 17.3 µM

Question: And the TGI (SF-539 CNS)?
Answer: 31.2 µM

Question: And the GI50 (ACHN renal)?
Answer: 16 µM

Question: And the TGI (ACHN renal)?
Answer: 29.6 µM

Question: And the GI50 (OVCAR-3 ovarian)?
Answer: 15.5 µM

Question: What about the TGI (OVCAR-3 ovarian) of the same molecule?
Answer: 29 µM

Question: What about the GI50 (RXF 393 renal) of the same molecule?
Answer: 13.2 µM

Question: What about the TGI (RXF 393 renal) of the same molecule?
Answer: 26.1 µM

Question: And the GI50 (NCI/ADR-RES ovarian)?
Answer: 17.4 µM

Question: What about the TGI (NCI/ADR-RES ovarian) of the same molecule?
Answer: 31.4 µM

Question: And the GI50 (EKVX NSCLC)?
Answer: 17.3 µM

Question: And the TGI (EKVX NSCLC)?
Answer: 31.2 µM

Question: And the GI50 (LOX IMVI melanoma)?
Answer: 16.4 µM

Question: What about the TGI (LOX IMVI melanoma) of the same molecule?
Answer: 30.1 µM

Question: And the GI50 (BT-549 breast)?
Answer: 18.5 µM

Question: And the TGI (BT-549 breast)?
Answer: 32.6 µM

Question: What about the GI50 (SW-620 colon) of the same molecule?
Answer: 15.1 µM

Question: And the TGI (SW-620 colon)?
Answer: 28.7 µM

Question: And the GI50 (KM12 colon)?
Answer: 16.3 µM

Question: What about the TGI (KM12 colon) of the same molecule?
Answer: 30.1 µM

Question: What about the GI50 (NCI-H226 lung) of the same molecule?
Answer: 16.2 µM

Question: What about the TGI (NCI-H226 lung) of the same molecule?
Answer: 29.9 µM

Question: What about the GI50 (NCI-H23 lung) of the same molecule?
Answer: 17 µM

Question: And the TGI (NCI-H23 lung)?
Answer: 30.9 µM

Question: What about the GI50 (MDA-MB-435 melanoma) of the same molecule?
Answer: 16.8 µM

Question: What about the TGI (MDA-MB-435 melanoma) of the same molecule?
Answer: 30.7 µM

Question: What about the GI50 (OVCAR-8 ovarian) of the same molecule?
Answer: 17 µM

Question: What about the TGI (OVCAR-8 ovarian) of the same molecule?
Answer: 30.9 µM

Question: What about the GI50 (MOLT-4 leukemia) of the same molecule?
Answer: 5.16 µM

Question: What about the TGI (MOLT-4 leukemia) of the same molecule?
Answer: 17.6 µM

Question: And the GI50 (UACC-257 melanoma)?
Answer: 17.6 µM

Question: And the TGI (UACC-257 melanoma)?
Answer: 31.5 µM

Question: What about the GI50 (HOP-92 NSCLC) of the same molecule?
Answer: 15.1 µM

Question: What about the TGI (HOP-92 NSCLC) of the same molecule?
Answer: 28.5 µM

Question: What about the GI50 (HCT-116 colon) of the same molecule?
Answer: 14.5 µM

Question: And the TGI (HCT-116 colon)?
Answer: 28.2 µM

Question: What about the GI50 (SK-MEL-2 melanoma) of the same molecule?
Answer: 19.1 µM

Question: And the TGI (SK-MEL-2 melanoma)?
Answer: 33.2 µM

Question: And the GI50 (SK-OV-3 ovarian)?
Answer: 16.1 µM

Question: What about the TGI (SK-OV-3 ovarian) of the same molecule?
Answer: 29.8 µM

Question: What about the GI50 (SF-295 CNS) of the same molecule?
Answer: 16.2 µM

Question: What about the TGI (SF-295 CNS) of the same molecule?
Answer: 29.8 µM

Question: And the GI50 (NCI-H322M lung)?
Answer: 18.8 µM

Question: What about the TGI (NCI-H322M lung) of the same molecule?
Answer: 33.2 µM

Question: And the GI50 (SN12C renal)?
Answer: 15.7 µM

Question: What about the TGI (SN12C renal) of the same molecule?
Answer: 29.3 µM

Question: And the GI50 (IGROV1 ovarian)?
Answer: 15 µM

Question: And the TGI (IGROV1 ovarian)?
Answer: 28.4 µM

Question: What about the GI50 (CCRF-CEM leukemia) of the same molecule?
Answer: 16.2 µM

Question: What about the TGI (CCRF-CEM leukemia) of the same molecule?
Answer: 29.8 µM

Question: What about the GI50 (CAKI-1 renal) of the same molecule?
Answer: 12.9 µM

Question: What about the TGI (CAKI-1 renal) of the same molecule?
Answer: 25.7 µM

Question: And the GI50 (SK-MEL-28 melanoma)?
Answer: 17.6 µM

Question: And the TGI (SK-MEL-28 melanoma)?
Answer: 31.5 µM

Question: What about the GI50 (M14 melanoma) of the same molecule?
Answer: 16.6 µM

Question: And the TGI (M14 melanoma)?
Answer: 30.4 µM

Question: What about the GI50 (MCF7 breast) of the same molecule?
Answer: 17.6 µM

Question: What about the TGI (MCF7 breast) of the same molecule?
Answer: 31.7 µM

Question: And the GI50 (HT29 colon)?
Answer: 15.1 µM

Question: What about the TGI (HT29 colon) of the same molecule?
Answer: 28.9 µM

Question: What about the GI50 (PC-3 prostate) of the same molecule?
Answer: 14.3 µM

Question: What about the TGI (PC-3 prostate) of the same molecule?
Answer: 27.6 µM

Question: And the GI50 (HCT-15 colon)?
Answer: 13.9 µM

Question: What about the TGI (HCT-15 colon) of the same molecule?
Answer: 27.3 µM

Question: And the GI50 (SNB-75 CNS)?
Answer: 17.8 µM

Question: What about the TGI (SNB-75 CNS) of the same molecule?
Answer: 32.3 µM

Question: What about the GI50 (T-47D breast) of the same molecule?
Answer: 15.5 µM

Question: What about the TGI (T-47D breast) of the same molecule?
Answer: 29.1 µM

Question: What about the GI50 (SNB-19 CNS) of the same molecule?
Answer: 17.2 µM

Question: And the TGI (SNB-19 CNS)?
Answer: 31.2 µM

Question: What about the GI50 (A498 renal) of the same molecule?
Answer: 17.4 µM

Question: And the TGI (A498 renal)?
Answer: 31.3 µM

Reference: PubChem BioAssay (NCI)
